Data set [1] concerns the target PKCα (Homo sapiens, UniProt P17252). Nature of the data set: PKCα kinase activity / phospho-PKCα-T638 immunoblot. The following applies: anti-phospho-PKCα-T638 immunoblot. It counts as cell-based.
Data set [2] relates to advanced refractory malignancies. The following applies: patients; i.v. infusion over fifteen minutes once every three weeks, 25 to 350 mg/m^2; cited from earlier work.
For data set [3], the system named is metastatic colorectal adenocarcinoma. The following applies: patients; i.v. over 15 minutes 165 or 250 mg/m^2 once a week in three week intervals; cited from earlier work.
The test system of data set [4] is advanced solid cancers. The following applies: patients; i.v. days 1, 8, 15 and 22 of a 42 day cycle, 12 to 96 mg/m^2; cited from earlier work.
The subject of data set [5] is advanced squamous cell carcinoma of the cervix. To be noted: cited from earlier work.
For data set [6] the following is noted: cited from earlier work.

For `Cn1cc(C2=C(c3cn(CCCSC(=N)N)c4ccccc34)C(=O)NC2=O)c2ccccc21` [Ro 31-8220], the “kinase activity of PKCα” value in data set [1] is “inhibited”.

For the compound `CN1N=C(N)c2cn([C@@H]3O[C@H](COP(=O)(O)O)[C@@H](O)[C@H]3O)c3ncnc1c23` [TCN-P, triciribine phosphate], the therapeutic response result in data set [2] is given as “limited therapeutic responses”. Moreover, the toxicity result is “significant toxicity” in data set [2] and “unexpected clinical toxicity” in data set [4]. Moreover, the clinical usefulness entry in data set [3] is reported as “lack of clinical usefulness”. In addition, the “responses among twenty-one evaluable patients” value in data set [5] (5 day continuous infusion of at least 35 mg/m^2 every six weeks) is “only two responses were observed”. The “activity (authors' conclusion)” value in data set [5] (metastatic or recurrent squamous cell cancer of the cervix, this dose and schedule) is listed as “limited activity”. Moreover, in data set [6], the “solubility relative to the parent drug” value is reported as “more soluble than the parent drug”.

The values above are taken from US9457040B2, “Effective treatment of esophageal adenocarcinoma using triciribine and related compounds” (University of South Florida, priority 2007, dated 2016).
